Data: PMC2358886, “Evolution of pharmacologic specificity in the pregnane X receptor” (BMC Evolutionary Biology, 2008)
Where two headings read alike, the source gives them in different places.

Legend:
human PXR [1] = molecular target: T1, human PXR (Homo sapiens, UniProt O75469); conditions: for hPXR Efficacy: human
T1 sequence (O75469 1-434): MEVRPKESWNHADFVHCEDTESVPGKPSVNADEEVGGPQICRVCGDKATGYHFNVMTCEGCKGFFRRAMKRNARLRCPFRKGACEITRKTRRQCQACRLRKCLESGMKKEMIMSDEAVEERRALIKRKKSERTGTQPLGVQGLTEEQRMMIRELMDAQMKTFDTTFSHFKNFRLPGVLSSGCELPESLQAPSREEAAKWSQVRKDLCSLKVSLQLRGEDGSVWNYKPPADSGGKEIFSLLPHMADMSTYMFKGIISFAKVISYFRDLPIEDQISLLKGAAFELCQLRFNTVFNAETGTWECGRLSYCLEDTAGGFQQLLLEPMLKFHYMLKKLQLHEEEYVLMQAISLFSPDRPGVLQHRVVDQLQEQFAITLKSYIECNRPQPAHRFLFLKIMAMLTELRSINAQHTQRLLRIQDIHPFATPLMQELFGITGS

zebrafish PXR = molecular target: T2, zebrafish PXR (Danio rerio, UniProt A5WYG8)
T2 sequence (A5WYG8 144-430): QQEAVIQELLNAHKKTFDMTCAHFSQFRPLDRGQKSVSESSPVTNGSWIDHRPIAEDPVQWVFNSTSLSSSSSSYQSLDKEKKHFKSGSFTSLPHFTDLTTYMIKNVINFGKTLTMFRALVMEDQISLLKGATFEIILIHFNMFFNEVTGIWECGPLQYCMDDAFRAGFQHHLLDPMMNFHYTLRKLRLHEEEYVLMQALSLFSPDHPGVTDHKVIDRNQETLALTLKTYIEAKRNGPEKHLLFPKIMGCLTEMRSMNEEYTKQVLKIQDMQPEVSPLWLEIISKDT

human PXR [2] = molecular target: T1, human PXR; experiment: PXR activation luciferase reporter assay, human PXR in HepG2-NTCP cells; conditions: for hPXR Efficacy: relative to 10 μM rifampicin, assigned an efficacy of 1.0
[3] = -log(EC50), EC50 in molar units, activation of zebrafish PXR
[4] = -log(EC50), EC50 in molar units, activation of human PXR
[5] = Human PXR EC50 (concentration class, Figure 2A), class read from box colour against the key of Figure 2
[6] = hPXR Activity, -log(EC50), EC50 in molar units, activation of human PXR

Compound	Toxicity (HepG2 cells)	zfPXR Activity (zebrafish PXR; [3])	EC50 (human PXR [2]; [6])	Toxicity (HepG2 cells; human, 24 hr)	also measured
C[C@]12CCC(=O)C[C@@H]1CC[C@@H]1[C@@H]2CC[C@]2(C)C(=O)CC[C@@H]12 [AN2, 5α-Androstan-3,17-dione]	None				hPXR Efficacy (human PXR [1]): 0.87
C[C@]12CC[C@H]3[C@@H](CCC4=CC(=O)CC[C@@]43C)[C@@H]1CC[C@@H]2O [AN8, 4-Androsten-17β-ol-3-one]	None				hPXR Efficacy (human PXR [1]): 0.22
C[C@]12CC[C@H]3[C@@H](CCC4=CC(=O)CC[C@@]43C)[C@@H]1CC[C@H]2O [AN15, 4-Androsten-17α-ol-3-one]	None				hPXR Efficacy (human PXR [1]): 0.9
C[C@]12CC[C@@H](O[C@@H]3O[C@H](C(=O)O)[C@@H](O)[C@H](O)[C@H]3O)C[C@H]1CC[C@@H]1[C@@H]2CC[C@]2(C)C(=O)CC[C@@H]12 [AN18, 5β-Androstan-3α-glucosiduronate-17-one]	None	None			hPXR Activity (human PXR [2]; [4]): None
C[C@H](CCC(=O)O)[C@H]1CC[C@H]2[C@@H]3CC[C@@H]4C[C@H](OS(=O)(=O)O)CC[C@]4(C)[C@H]3CC[C@]12C [BI41, 5β-Cholanic acid-3α-sulfate]	None	4.61			hPXR Activity (human PXR [2]; [4]): 3.93
CC(=O)O[C@@H]1CC[C@@]2(C)[C@H](CC[C@@H]3[C@@H]2CC[C@]2(C)[C@@H]([C@H](C)CCC(=O)O)CC[C@@H]32)C1 [BI49, 5β-Cholanic acid-3α-acetate]	None	5.89			hPXR Activity (human PXR [2]; [4]): 5.92; hPXR Efficacy (human PXR [2]): 0.54
COC(=O)CC[C@@H](C)[C@H]1CC[C@H]2[C@@H]3CC[C@@H]4C[C@H](OC(C)=O)CC[C@]4(C)[C@H]3CC[C@]12C [BI50, 5β-Cholanic acid-3α-acetate methyl ester]	None	None			hPXR Activity (human PXR [2]; [4]): 5.96
CC(C)CCC[C@@H](C)[C@H]1CC[C@H]2[C@@H]3CC=C4C[C@@H](O)CC[C@]4(C)[C@H]3CC[C@]12C [Cholesterol]					Human PXR EC50 (concentration class, Figure 2A) (human PXR [1]): Inactive
C[C@]12CC[C@@H]3c4ccc(O)cc4CC[C@H]3[C@@H]1CC[C@@H]2O [ES1, 1,3,5(10)-Estratrien-3,17β-diol]		None	15.8 µM	200 µM	EC50 (human PXR [2]; [5]): 11 to 50 µM
C[C@]12CC[C@@H]3c4ccc(O)cc4CC[C@H]3[C@@H]1CCC2=O [ES2, 1,3,5(10)-Estratrien-3-ol-17-one]				200 µM	
C[C@]12CC[C@@H]3c4ccc(OC5O[C@H](C(=O)O)[C@@H](O)[C@H](O)[C@H]5O)cc4CC[C@H]3[C@@H]1CC[C@@H]2O (stereo partly drawn) [ES9, 1,3,5(10)-Estratrien-17β-ol-3-glucosiduronate]	None	None			hPXR Activity (human PXR [2]; [4]): None
CC(=O)Nc1ccc(O)cc1 [MI1, Acetaminophen]	None				
Cn1c(=O)c2c(ncn2C)n(C)c1=O [MI6, Caffeine]					hPXR Activity (human PXR [1]): None
CC1=C(/C=C/C(C)=C/C=C/C(C)=C/C=C/C=C(C)/C=C/C=C(C)/C=C/C2=C(C)CCCC2(C)C)C(C)(C)CCC1 [MI9, β-Carotene]		None	3.47 µM	100 µM	
C[C@H]([C@H](O)CCC(C)(C)O)[C@H]1CC[C@@]2(O)C3=CC(=O)[C@@H]4C[C@@H](O)[C@@H](O)C[C@]4(C)[C@H]3CC[C@]12C [MI13, Ecdysone]	None	None			hPXR Activity (human PXR [2]; [4]): None
CCOC(=O)c1ccccc1N [MI14, Ethyl-2-aminobenzoate]		None			hPXR Activity (human PXR [2]; [4]): None
Nc1nc2ncc(CNc3ccc(C(=O)N[C@@H](CCC(=O)O)C(=O)O)cc3)nc2c(=O)[nH]1 [MI16, Folic acid]	None				zfPXR Activity (zebrafish PXR): None
C/C=C1\C(=O)C[C@H]2[C@@H]3CCC4=CC(=O)CC[C@]4(C)[C@H]3CC[C@]12C [MI17, Guggulsterone]	None				zfPXR Activity (zebrafish PXR): None

Compound	Toxicity (HepG2 cells)	zfPXR Activity (zebrafish PXR; [3])	EC50 (human PXR [2]; [6])	Toxicity (HepG2 cells; human, 24 hr)	also measured
CC[C@H](C)C(=O)O[C@H]1CCC=C2C=C[C@H](C)[C@H](CC[C@@H]3C[C@@H](O)CC(=O)O3)[C@H]21 [MI20, Mevastatin]		None	5.89 µM	15 µM	
CC(=O)O[C@H]1C(=O)[C@@]2(C)[C@H]([C@H](OC(=O)c3ccccc3)[C@]3(O)C[C@H](OC(=O)[C@H](O)[C@@H](NC(=O)c4ccccc4)c4ccccc4)C(C)=C1C3(C)C)[C@]1(OC(C)=O)CO[C@@H]1C[C@@H]2O [MI24, Paclitaxel]			12 µM	100 µM	zfPXR Activity (zebrafish PXR): None
COC(=O)[C@H]1[C@H]2C[C@@H]3c4[nH]c5cc(OC)ccc5c4CCN3C[C@H]2C[C@@H](OC(=O)c2cc(OC)c(OC)c(OC)c2)[C@@H]1OC [MI30, Reserpine]				50 µM	
CO[C@H]1/C=C/O[C@@]2(C)Oc3c(C)c(O)c4c(O)c(c(/C=N/N5CCN(C)CC5)c(O)c4c3C2=O)NC(=O)/C(C)=C\C=C\[C@H](C)[C@H](O)[C@@H](C)[C@@H](O)[C@@H](C)[C@H](OC(C)=O)[C@@H]1C [MI32, Rifampicin]		None		200 µM	
CCOP(=O)(OCC)C(=Cc1cc(C(C)(C)C)c(O)c(C(C)(C)C)c1)P(=O)(OCC)OCC [MI33, SR12813]	10 µM	None			
Cc1c(C)c2c(c(C)c1O)CC[C@@](C)(CCC[C@H](C)CCC[C@H](C)CCCC(C)C)O2 [MI37, α-Tocopherol]			~50.1 µM	100 µM	zfPXR Activity (zebrafish PXR): None
C=C1/C(=C\C=C2/CCC[C@]3(C)[C@@H]([C@H](C)CCCC(C)(C)O)CC[C@@H]23)C[C@@H](O)C[C@@H]1O [MI41, 1α,25-Dihydroxyvitamin D3]				50 µM	
C=C1/C(=C\C=C2/CCC[C@]3(C)[C@@H]([C@H](C)CCCC(C)C)CC[C@@H]23)C[C@@H](O)C[C@@H]1O [MI43, 1α-Hydroxyvitamin D3]		None		50 µM	
CC1=C(C/C=C(\C)CCC[C@H](C)CCC[C@H](C)CCCC(C)C)C(=O)c2ccccc2C1=O [MI44, Vitamin K1]		None	10.2 µM	100 µM	
C[C@]12C[C@H](O)[C@H]3[C@@H](CCC4=CC(=O)CC[C@@]43C)[C@@H]1CC[C@@H]2C(=O)CO [PR3, 4-Pregnen-11β,21-diol-3,20-dione]	None		10 µM		Zebrafish PXR EC50 (concentration class, Figure 2B) (zebrafish PXR): Inactive; zfPXR Activity (zebrafish PXR): None; EC50 (human PXR [2]; [5]): < 10 µM
C[C@]12CCC(=O)C=C1CC[C@@H]1[C@@H]2CC[C@@]2(C)[C@H]1CC[C@]2(O)C(=O)CO [PR4, 4-Pregnen-17,21-diol-3,20-dione]	None	None	22.9 µM		EC50 (human PXR [2]; [5]): 11 to 50 µM
C[C@]12CCC(=O)C=C1CC[C@@H]1[C@@H]2[C@@H](O)C[C@]2(C=O)[C@@H](C(=O)CO)CC[C@@H]12 [PR5, 4-Pregnen-11β,21-diol-3,18,20-trione]	None	None	55 µM		EC50 (human PXR [2]; [5]): 51 to 200 µM
C[C@]12CCC(=O)C=C1CC[C@@H]1[C@@H]2C(=O)C[C@@]2(C)[C@H]1CC[C@]2(O)C(=O)CO [PR6, 4-Pregnen-17,21-diol-3,11,20-trione]			69.2 µM	200 µM	Zebrafish PXR EC50 (concentration class, Figure 2B) (zebrafish PXR): Inactive; zfPXR Activity (zebrafish PXR): None; EC50 (human PXR [2]; [5]): 51 to 200 µM
CC(=O)[C@H]1CC[C@H]2[C@@H]3CCC4=CC(=O)CC[C@]4(C)[C@H]3CC[C@]12C [PR7, 4-Pregnen-3,20-dione]		None	14.8 µM	200 µM	EC50 (human PXR [2]; [5]): 11 to 50 µM
CC(=O)[C@@]1(O)CC[C@H]2[C@@H]3CCC4=CC(=O)CC[C@]4(C)[C@H]3CC[C@@]21C [PR8, 4-Pregnen-17-ol-3,20-dione]					Toxicity (HepG2 cells; human): None
CC(=O)[C@H]1CC[C@H]2[C@@H]3CC=C4C[C@@H](O)CC[C@]4(C)[C@H]3CC[C@]12C [PR12, 5-Pregnen-3β-diol-20-one]	None	6.32			zfPXR Efficacy (zebrafish PXR; relative to 20 μM 5α-androstan-3α-ol, assigned an efficacy of 1.0): 2.05; hPXR Activity (human PXR [2]; [4]): 5.64; hPXR Efficacy (human PXR [2]): 1.26
C[C@@H]1C[C@H]2[C@@H]3CCC4=CC(=O)C=C[C@]4(C)[C@@]3(F)[C@@H](O)C[C@]2(C)[C@@]1(O)C(=O)CO [PR29, 1,4-Pregnadien-9α-fluoro-16α-methyl-11β,17,21-triol-3,20-dione]	None				zfPXR Activity (zebrafish PXR): None; EC50 (human PXR [2]; hPXR Activity): 40.7 µM
